In test [1] the test system is Mus musculus. Description: Compound was tested intraperitoneally against P388 acute lymphocytic leukemia in mice; NA means inactive. Format: functional, organism-based.
The subject of test [2] is Mus musculus. Description: Compound was tested intraperitoneally against P388 acute lymphocytic leukemia in mice at a dose 100,50,25,12.5,6.25,3.72,1.56 mg/kg. The test is classed as functional.
Test [3] relates to Mus musculus. Nature of the test: Compound was tested intraperitoneally against P388 acute lymphocytic leukemia in mice at a dose 0.75 mg/kg. The test is classed as functional. To be noted: route intraperitoneal.

Calls of active or inactive are those of the source. The rule behind the calls is not given here.

In the case of `COc1ccc(OC)c(CNCC(OC)OC)c1`, the T/C entry in test [1] was “inactive”.
On the same count and under the same terms, in the case of `COc1ccc(OC)c2c1CN(C(C)=O)CC2O` (stereo not given) it was “inactive”.
`CC(=O)N1Cc2c(O)c3c(c(O)c2[C@H](OC2C[C@H](NC(=O)C(F)(F)F)[C@H](O)[C@H](C)O2)C1)C(=O)c1ccccc1C3=O` (stereo not given in full): the T/C in test [2] is given as 105.
Same read-out and setting: in the case of `CC(=O)N1Cc2c(O)c3c(c(O)c2[C@@H](OC2C[C@H](NC(=O)C(F)(F)F)[C@H](O)[C@H](C)O2)C1)C(=O)c1ccccc1C3=O` (stereo not given in full) it was 105.
In test [3], `CC(=O)[C@]1(O)Cc2c(O)c3c(c(O)c2[C@@H](OC2CC(N)C(O)C(C)O2)C1)C(=O)c1ccccc1C3=O` (stereo not given in full) showed a T/C of 160.

The values are drawn from ChEMBL document CHEMBL1123315, “Total chemical synthesis and antitumor evaluation of the 9-aza analogue of N-(trifluoroacetyl)-4-demethoxydaunomycin” (1986).
